Results published in patent US20140024663A1, “ATB(0,+) AMINO ACID TRANSPORTER AS A DRUG TARGET FOR TREATMENT OF ESTROGEN RECEPTOR-POSITIVE BREAST CANCER” (GEORGIA HEALTH SCIENCES UNIVERSITY RESEARCH INSTITUTE, INC., priority 2012, published 2014).

How the values were obtained:
[1] = system: ZR75.1 cells; experiment: QCM cell invasion assay; assay type: cell-based, human; conditions: ZR75.1, α-MT 2.5 mM, p>0.05
Experimental: (§1) Migration and invasion assays. The influence of α-MT on cell migration and invasion was determined with ZR75.1 cells. The migration of these cells toward fetal bovine serum was measured using the QCM™ cell migration assay kit (Millipore) according to manufacturer's instructions. Serum-starved ZR75.1 cells were allowed to migrate for 48 h in the presence/absence of α-MT (2.5 mM). After removing the cells on the top of the membrane filter, the inserts were stained with 0.1% crystal violet, washed and dried. The crystal violet dye retained on the filters, representing the cells that migrated to the underside of the membrane filter, was extracted with acetic acid. The absorbance of the extract was measured at 570 nm. Cell invasion assay was performed similarly using the QCM™ cell invasion assay kit (Millipore). The inserts used in this assay were coated with ECMATRIX™, representing extracellular matrix.

[2] = system: MCF7 cells; experiment: Xenograft in nude mice with estrogen pellets, tumor growth; assay type: in vivo, Balb/c nude mice; conditions: MCF7 (ER-positive) in the presence of estrogen administration, α-MT in drinking water 2 mg/ml
Experimental: FIGS. 10A to 10D. In vivo efficacy of α-MT in the treatment of ER-positive breast cancer. ZR75.1 (FIG. 10A), MCF7 (FIG. 10B), and MB-231 (FIG. 10C) cells were injected subcutaneously (sc) into Balb/c nude mice (10×10^6 cells per injection site). For MCF7 cells, slow-releasing estrogen pellets were implanted to support the tumor growth. For each cell line, the control group received water with sucrose and the treatment group received α-MT (2 mg/ml) in water with sucrose. Tumor size was measured periodically. NS, not statistically significant (p>0.05); *, p<0.005; two-tailed unpaired Student's t test. In FIG. 10D, Balb/c nude mice were divided into two groups; the control group received water with sucrose and the treatment group received α-MT (2 mg/ml) in water with sucrose for 2 weeks. Mice were then bled and α-MT in plasma was determined by HPLC. Xenograft in nude mice. Human breast cancer cells (ZR75.1, MCF7, and MB231) were injected s.c. close to the lower mammary gland on the right side of Balb/c nude mice (10×10^6 cells per injection site). Only for MCF7 cells, slow-releasing estrogen pellets were implanted to support the tumor growth. Implantation of estrogen pellets was done as follows. […] Tumor size in control and treatment groups was measured periodically by caliper and […] was calculated using the formula (width^2×length)/2.

[3] = system: ZR75.1 cells; experiment: QCM cell migration assay; assay type: cell-based, human; conditions: ZR75.1, α-MT 2.5 mM, 48 h, p>0.05
Experimental: as §1

[4] = system: MCF10A cells; experiment: Cell death by propidium iodide staining and FACS cell cycle analysis; assay type: cell-based, human; conditions: α-MT 2.5 mM and 3-MA 10 mM, either alone or together, 48 h
Experimental: (§2) FIGS. 9A to 9D. Influence of α-MT on mTOR activity In FIG. 9A, MCF7 and MB231 cells were treated without or with α-MT (2.5 mM) for 24 h, 48 h, or 72 h, and then the cell lysates were used for western blot. Influence of α-MT with or without 3-MA on cell death. In FIG. 9B, MCF7, MB231, and MCF10A cells were treated for 48 h without or with α-MT (2.5 mM), 3-MA (10 mM), or α-MT (2.5 mM) plus 3-MA (10 mM), and then analyzed for cell death by propidium iodide (PI) staining and FACS-based cell cycle analysis. In FIG. 9C, MCF7 cells were treated for 48 h without or with α-MT (2.5 mM), 3-MA (10 mM), or α-MT (2.5 mM) plus 3-MA (10 mM), and then analyzed for apoptotic cell death by annexin V labeling. In FIG. 9D, MCF7 and MB231 cells were treated without or with 2.5 mM α-MT for 24 h, 48 h, or 72 h. Cell lysates were then used for western blot analysis of lamin A degradation product using an antibody that recognizes specifically the proteolytic cleavage product. β-Actin was used as an internal control.
(§3) Apoptosis assay. Fluorescence-activated cell sorting (FACS) was used to monitor cell death. MCF7 cells were treated with or without α-MT, 3-MA, or α-MT plus 3-MA. Control and treated cells were then fixed in 50% ethanol, treated with 0.1% sodium citrate, 1 mg/ml RNase A, and 50 μg/ml propidium iodide, and then subjected to FACS analysis (FACS Caliber, Becton Dickinson). FITC-labeled annexin V was used to differentiate apoptotic cell death from necrotic cell death.

[5] = system: MB231 cells; experiment: as above; assay type: cell-based, human; conditions: MB231, α-MT 2.5 mM and 3-MA 10 mM, either alone or together, 48 h
Experimental: as §2, §3

[6] = system: MCF7 cells; experiment: Apoptotic cell death by annexin V labeling; assay type: cell-based, human; conditions: MCF7, single agent (α-MT 2.5 mM or 3-MA 10 mM), 48 h
Experimental: as §2, §3

Question: Which results are given for `CC(N)(Cc1c[nH]c2ccccc12)C(=O)O` (racemic) [α-MT, α-methyl-DL-tryptophan]?
Answer: invasion in α-MT-treated cells [1]: 95±14 % of control; tumor growth in xenograft [2]: did not affect the growth; migration in α-MT-treated cells [3]: 87±7 % of control; effect on cell death [4]: very little, if any, effect; effect on cell death [5]: very little, if any, effect; apoptotic cell death by annexin V labeling [6]: induced apoptotic cell death
